Tested on: Plasmopara viticola
Assay: persistency against peronospora of grapevines caused by Plasmopara viticola, 7-day protective application
Assay type: in vivo, Plasmopara viticola on potted vines
Conditions: individual active compound, 7-day protective application on grapevine leaves
Protocol: The active compounds, separately or jointly, were prepared as a stock solution comprising 0.25% by weight of active compound in acetone or DMSO. 1% by weight of the emulsifier Uniperol® EL (wetting agent having emulsifying and dispersant action based on ethoxylated alkylphenols) was added to this solution, and the mixture was diluted with water to the desired concentration.
Use example—persistency against peronospora of grapevines caused by Plasmopara viticola, 7-day protective application Leaves of potted vines were sprayed to runoff point with an aqueous suspension having the concentration of active compound stated below. 7 days later, the undersides of the leaves were inoculated with an aqueous sporangia suspension of Plasmopara viticola. The grapevines were then initially placed in a water-vapor-saturated chamber at 24° C. for 48 hours and then in a greenhouse at 20-30° C. for 5 days. After this period of time, the plants were again placed in a humid chamber for 16 hours to accelerate sporangiophore eruption. The extent of the development of the disease on the undersides of the leaves was then determined visually.
The visually determined percentages of infected leaf areas were converted into efficacies in % of the untreated control:
The efficacy (E) is calculated as follows using Abbot's formula: E=(1−α/β)·100 α corresponds to the fungicidal infection of the treated plants in % and β corresponds to the fungicidal infection of the untreated (control) plants in % An efficacy of 0 means that the infection level of the treated plants corresponds to that of the untreated control plants; an efficacy of 100 means that the treated plants were not infected.
The expected efficacies of mixtures of active compounds were determined using Colby's formula (Colby, S. R. “Calculating synergistic and antagonistic responses of herbicide combinations”, Weeds, 15, 20-22, 1967) and compared with the observed efficacies.
Colby's formula: E=x+y−x·y/100
E expected efficacy, expressed in % of the untreated control, when using the mixture of the active compounds A and B at the concentrations a and b x efficacy, expressed in % of the untreated control, when using the active compound A at the concentration a y efficacy, expressed in % of the untreated control, when using the active compound B at the concentration b

Row | Compound | Efficacy in % of the untreated control (1 ppm in the spray liquor) [%] | Efficacy in % of the untreated control (5 ppm in the spray liquor) [%] | Efficacy in % of the untreated control (10 ppm in the spray liquor) [%] | Efficacy in % of the untreated control (2.5 ppm in the spray liquor) [%]
1 | CC1CCN(c2c(-c3c(F)cc(F)cc3F)c(Cl)nc3ncnn23)CC1 [I, 5-chloro-7-(4-methylpiperidin-1-yl)-6-(2,4,6-trifluorophenyl)-[1,2,4]tri-azolo[1,5-a]pyrimidine] | 0 | 0 | 6 | –
2 | O=C(NCc1ncc(C(F)(F)F)cc1Cl)c1c(Cl)cccc1Cl [II, 2,6-dichloro-N-(3-chloro-5-trifluoromethylpyridin-2-ylmethyl)-benzamide] | – | 76 | – | 65
